Assay results published in US20090196826A1, “COMPOSITIONS AND METHODS OF MAKING NON-SPHERICAL MICRO- AND NANO-PARTICLES” (BOARD OF REGENTS, THE UNIVERSITY OF TEXAS SYSTEM, priority 2007, published 2009).

Tested on: subcutaneous A549 lung tumor xenograft
Test: antitumor efficacy in subcutaneous A549 lung tumor xenograft (caliper)
Type: in vivo, mice
Settings: equivalent DOX dose 4 mg/kg i.v. at day 0, 2, 5 and 10
Experimental: In a separate study, we have systematically investigated the antitumor efficacy of cRGD-encoded micelles in a subcutaneous A549 lung tumor xenograft study. Tumor size was measured by a caliper and normalized to that at day 0 before treatment. In this study, animals were treated with an equivalent DOX dose at 4 mg/kg for free drug, 0 and 16% cRGD-DOX-SPIO micelles, and coadministration of 16% cRGD-DOX-SPIO micelles with free cRGD peptides ([…]). Free drug or drug-encapsulated micelles were injected i.v. (bolus) into the tail vein at day 0, 2, 5 and 10. The control group was injected with phosphate buffer saline (PBS). Three animals were used for each sample group.

SMILES: COc1cccc2c1C(=O)c1c(O)c3c(c(O)c1C2=O)C[C@@](O)(C(=O)CO)C[C@@H]3O[C@H]1C[C@H](N)[C@H](O)[C@H](C)O1 [free DOX, doxorubicin]
- tumor size change: did not change dramatically
